Results on 22 compounds are retold here after patent publication US8519149B2, “Tricyclic compounds as mPGES-1 inhibitors” (Glenmark Pharmaceuticals S.A., priority 2010, dated 2013).

The assay has as its target T1, Recombinant human mPGES-1 (Homo sapiens, UniProt O14684).
T1 sequence (O14684 1-152): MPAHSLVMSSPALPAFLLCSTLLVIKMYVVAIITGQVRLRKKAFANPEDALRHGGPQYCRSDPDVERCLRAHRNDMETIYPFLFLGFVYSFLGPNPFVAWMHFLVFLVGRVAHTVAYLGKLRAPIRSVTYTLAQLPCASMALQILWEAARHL
Description: In-vitro mPGES-1 enzyme inhibition assay (PGE2 formation from PGH2, HTRF detection). The assay is classed as biochemical. The following applies: for inhibition at 1 µM: 1 μM test compound, read-out: Percentage inhibition at 1 μM; for inhibition at 1 µM / inhibition at 10 µM: recombinant human mPGES-1 microsomal fraction; for inhibition at 10 µM: 10 μM test compound, read-out: Percentage inhibition at 10 μM; for IC50: class symbols, selected examples. Put shortly:
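IC50 values were derived by nonlinear regression of percent inhibition relative to enzyme reactions run without inhibitor. PGE2 formed from PGH2 with GSH was quantified by antibody-based HTRF after stannous chloride quench. Enzyme source was human mPGES-1 microsomes at 40-60 μg/mL protein; DMSO 0.5% (v/v).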

On to `CC1(C)Cc2c(c(-c3nc(-c4ccc(F)c(Cl)c4)no3)cc3nc(Nc4c(Cl)cccc4Cl)[nH]c23)O1` [Example-161, 5-(3-(3-Chloro-4-fluorophenyl)-1,2,4-oxadiazol-5-yl)-N-(2,6-dichlorophenyl)-7,7-dimethyl-7,8-dihydro-1H-benzofuro[4,5-d]imidazol-2-amine], for which the inhibition at 1 µM came to 79.2%, the inhibition at 10 µM was found to be 88% and the IC50 was over 100 nM.
As to `COc1cc(OC)cc(-c2noc(-c3cc4nc(Nc5c(Cl)cccc5Cl)[nH]c4c4c3OC(C)(C)C4)n2)c1` [Example-162, N-(2,6-Dichlorophenyl)-5-(3-(3,5-dimethoxyphenyl)-1,2,4-oxadiazol-5-yl)-7,7-dimethyl-7,8-dihydro-1H-benzofuro[4,5-d]imidazol-2-amine], the inhibition at 1 µM turned out to be 62.3% and the inhibition at 10 µM came out at 80.8%.
On the same counts, the results for `Cc1cccc(Cl)c1Nc1nc2cc(C(=O)Nc3ccc(C(F)(F)F)c[n+]3[O-])c3c(c2[nH]1)CC(C)(C)O3` [Example-163, 2-(2-((2-Chloro-6-methylphenyl)amino)-7,7-dimethyl-7,8-dihydro-1H-benzofuro[4,5-d]imidazole-5-carboxamido)-5-(trifluoromethyl)pyridine 1-oxide] are 62.8% and 96.9%.
For the compound `Cc1cccc(Cl)c1Nc1nc2cc(C(=O)Nc3cccc(C(F)(F)F)c3F)c3c(c2[nH]1)CC(C)(C)O3` [Example-164, 2-((2-Chloro-6-methylphenyl)amino)-N-(2-fluoro-3-(trifluoromethyl)phenyl)-7,7-dimethyl-7,8-dihydro-1H-benzofuro[4,5-d]imidazole-5-carboxamide], the inhibition at 1 µM came out at 93.5%, the inhibition at 10 µM was found to be 94.5% and the IC50 is under 50 nM.
For `CC1(C)Cc2c(c(C(=O)Nc3cccc(C4CC4)c3)cc3nc(Nc4c(F)cccc4Cl)[nH]c23)O1` [Example-165, 2-((2-Chloro-6-fluorophenyl)amino)-N-(3-cyclopropylphenyl)-7,7-dimethyl-7,8-dihydro-1H-benzofuro[4,5-d]imidazole-5-carboxamide], the inhibition at 1 µM worked out at 99.4%, the inhibition at 10 µM came out at 98.1% and the half-inhibitory concentration (IC50) was under 50 nM.
Consider `CC1(C)Cc2c(c(C(=O)Nc3ccc(C(F)(F)F)nc3)cc3nc(Nc4c(Cl)cccc4Cl)[nH]c23)O1` [Example-166, 2-((2,6-Dichlorophenyl)amino)-7,7-dimethyl-N-(6-(trifluoromethyl)pyridin-3-yl)-7,8-dihydro-1H-benzofuro[4,5-d]imidazole-5-carboxamide], for which the inhibition at 1 µM amounted to 97.7% and the inhibition at 10 µM was determined as 99.6%.
Consider `Cn1c(Nc2c(F)cccc2Cl)nc2cc(C(=O)Nc3ccc(C4CC4)cc3)c3c(c21)CC(C)(C)O3` [Example-167, 2-((2-Chloro-6-fluorophenyl)amino)-N-(4-cyclopropylphenyl)-1,7,7-trimethyl-7,8-dihydro-1H-benzofuro[4,5-d]imidazole-5-carboxamide], for which the inhibition at 1 µM stood at 96.9%, the inhibition at 10 µM came out at 98.3% and the IC50 is under 50 nM.
On the same counts, the results for `CC1(C)Cc2c(c(C(=O)Nc3cccc(C(F)(F)F)c3F)cc3nc(Nc4c(F)cccc4Cl)[nH]c23)O1` [Example-168, 2-((2-Chloro-6-fluorophenyl)amino)-N-(2-fluoro-3-(trifluoromethyl)phenyl)-7,7-dimethyl-7,8-dihydro-1H-benzofuro[4,5-d]imidazole-5-carboxamide] are 92.5%, 97.7% and under 50 nM.
`Cc1nc2c(o1)c(C(=O)Nc1ccc(F)cc1)cc1nc(Nc3c(Cl)cccc3Cl)[nH]c12` [Example-177, 7-[(2,6-Dichlorophenyl)amino]-N-(4-fluorophenyl)-2-methyl-8H-imidazo[4,5-e][1,3]benzoxazole-4-carboxamide]: the inhibition at 1 µM is 80.8%, the inhibition at 10 µM came out at 89.4% and the 50% inhibitory concentration (IC50) was under 50 nM.
Take `Cc1nc2c(o1)c(C(=O)Nc1ccc(C(F)(F)F)cc1)cc1nc(Nc3c(Cl)cccc3Cl)[nH]c12` [Example-178, 7-[(2,6-Dichlorophenyl)amino]-2-methyl-N-[4-(trifluoromethyl)phenyl]-8H-imidazo[4,5-e][1,3]benzoxazole-4-carboxamide]: the inhibition at 1 µM is 91.4%, the inhibition at 10 µM was 98.2% and the IC50 is under 50 nM.
On the same counts, the results for `Cc1nc2c(o1)c(C(=O)Nc1ccc(Br)cc1)cc1nc(Nc3c(Cl)cccc3Cl)[nH]c12` [Example-179, N-(4-Bromophenyl)-7-[(2,6-dichlorophenyl)amino]-2-methyl-8H-imidazo[4,5-e][1,3]benzoxazole-4-carboxamide] are 93.7%, 97.4% and under 50 nM.
On the same counts, the results for `Cc1nc2c(o1)c(C(=O)Nc1ccc(C(C)(C)C)cc1)cc1nc(Nc3c(Cl)cccc3Cl)[nH]c12` [Example-180, N-(4-tert-Butylphenyl)-7-[(2,6-dichlorophenyl)amino]-2-methyl-8H-imidazo[4,5-e][1,3]benzoxazole-4-carboxamide] are 98.7%, 97.3% and under 50 nM.
`CCCCCCNC(=O)c1cc2nc(Nc3c(Cl)cccc3Cl)[nH]c2c2nc(C)oc12` [Example-181, 7-[(2,6-Dichlorophenyl)amino]-N-hexyl-2-methyl-8H-imidazo[4,5-e][1,3]benzoxazole-4-carboxamide]: the inhibition at 1 µM was found to be 89.5%, the inhibition at 10 µM amounted to 93.9% and the concentration for half-maximal inhibition (IC50) is under 50 nM.
The like results for `Cc1nc2c(o1)c(C(=O)NCC1CCCCC1)cc1nc(Nc3c(Cl)cccc3Cl)[nH]c12` [Example-183, N-(Cyclohexylmethyl)-7-[(2,6-dichlorophenyl)amino]-2-methyl-8H-imidazo[4,5-e][1,3]benzoxazole-4-carboxamide] were, in that order, 97.5%, 93.1% and under 50 nM.
The like results for `CC(C)(C)c1ccc(NC(=O)c2cc3nc(Nc4c(Cl)cccc4Cl)[nH]c3c3nc(C4CC4)oc23)cc1` [Example-184, N-(4-tert-Butylphenyl)-2-cyclopropyl-7-[(2,6-dichlorophenyl)amino]-8H-imidazo[4,5-e][1,3]benzoxazole-4-carboxamide] were, in that order, 96.9%, 95.9% and under 50 nM.
The like results for `O=C(Nc1cc(C(F)(F)F)ccc1F)c1cc2nc(Nc3c(F)cccc3Cl)[nH]c2c2nc(C3CC3)oc12` [Example-185, 7-((2-Chloro-6-fluorophenyl)amino)-2-cyclopropyl-N-(2-fluoro-5-(trifluoromethyl)phenyl)-8H-imidazo[4′,5′:5,6]benzo[1,2-d]oxazole-4-carboxamide] were, in that order, 94.4%, 98.5% and under 50 nM.
Turning to `Cc1nc2c(o1)c(C(=O)Nc1cc(C(F)(F)F)ccc1F)cc1nc(Nc3c(F)cccc3Cl)[nH]c12` [Example-186, 7-((2-Chloro-6-fluorophenyl)amino)-N-(2-fluoro-5-(trifluoromethyl)phenyl)-2-methyl-8H-imidazol[4′,5′:5,6]-benzo[1,2-d]oxazole-4-carboxamide], the inhibition at 1 µM stood at 98.6%, the inhibition at 10 µM turned out to be 98.5% and the half-maximal inhibitory concentration (IC50) was under 50 nM.
On the same counts, the results for `Cc1nc2c(o1)c(C(=O)Nc1ccc(F)c(C(F)(F)F)c1)cc1nc(Nc3c(F)cccc3Cl)[nH]c12` [Example-187, 7-((2-Chloro-6-fluorophenyl)amino)-N-(4-fluoro-3-(trifluoromethyl)phenyl)-2-methyl-8H-imidazo[4′,5′:5,6]benzo[1,2-d]oxazole-4-carboxamide] are 95.8%, 83% and under 50 nM.
On the same counts, the results for `Cc1nc2c(o1)c(C(=O)NCc1ccccc1C(F)(F)F)cc1nc(Nc3c(Cl)cccc3Cl)[nH]c12` [Example-188, 7-[(2,6-Dichlorophenyl)amino]-2-methyl-N-[2-(trifluoromethyl)benzyl]-8H-imidazo[4,5-e][1,3]benzoxazole-4-carboxamide] are 98.1%, 99.4% and 50 to 100 nM.
Regarding `Cc1nc2c(o1)c(C(=O)NC1CCC(F)(F)CC1)cc1nc(Nc3c(Cl)cccc3Cl)[nH]c12` [Example-189, 7-[(2,6-Dichlorophenyl)amino]-N-(4,4-difluorocyclohexyl)-2-methyl-8H-imidazo[4,5-e][1,3]benzoxazole-4-carboxamide], the inhibition at 1 µM was 53.9% and the inhibition at 10 µM was 91.1%.
As to `Cc1nc2c(o1)c(C(=O)Nc1ccc(C(C)(C)C#N)cc1)cc1nc(Nc3c(Cl)cccc3Cl)[nH]c12` [Example-190, N-[4-(2-Cyanopropan-2-yl)phenyl]-7-[(2,6-dichlorophenyl)amino]-2-methyl-8H-imidazo[4,5-e][1,3]benzoxazole-4-carboxamide], the inhibition at 1 µM was found to be 81.2%, the inhibition at 10 µM was found to be 89.5% and the concentration for half-maximal inhibition (IC50) is over 100 nM.
On the same counts, the results for `CC1(C)Cc2c(c(C(=O)Nc3ccc(C(F)(F)F)nc3)cc3nc(Nc4c(F)cccc4Cl)[nH]c23)O1` [Example-191, 2-((2-Chloro-6-fluorophenyl)amino)-7,7-dimethyl-N-(6-(trifluoromethyl)pyridin-3-yl)-7,8-dihydro-1H-benzofuro[4,5-d]imidazole-5-carboxamide] are 96.1%, 96.3% and under 50 nM.

One may read the inhibition as the share of the control response that was lost under treatment. What is called IC50 is the concentration at which inhibition is half-maximal.
